The target of one assay is T1, PTPN2 (i.e., TC-PTP) (Homo sapiens, UniProt P17706).
T1 sequence (P17706 1-415): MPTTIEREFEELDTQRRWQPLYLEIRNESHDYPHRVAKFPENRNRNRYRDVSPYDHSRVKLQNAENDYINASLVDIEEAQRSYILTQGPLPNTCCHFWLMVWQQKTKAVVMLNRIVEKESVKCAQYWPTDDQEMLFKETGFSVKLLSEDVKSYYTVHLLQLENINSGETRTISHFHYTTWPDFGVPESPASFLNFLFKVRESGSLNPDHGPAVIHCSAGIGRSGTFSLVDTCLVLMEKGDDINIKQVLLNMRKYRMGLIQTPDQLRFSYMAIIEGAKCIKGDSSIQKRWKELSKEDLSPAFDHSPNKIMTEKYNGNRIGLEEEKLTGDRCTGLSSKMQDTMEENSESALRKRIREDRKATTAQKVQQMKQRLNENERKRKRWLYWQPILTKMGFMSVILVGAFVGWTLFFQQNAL
As to the kind of experiment: Phosphatase activity assay (DiFMUP substrate), PTPN2. The conditions noted are these: compounds binned ≤1 uM or >1 uM. It counts as biochemical. On the procedure: (§1) The selectivity and potency of a small molecule PTPN2 inhibitor as provided herein against one or more protein tyrosine phosphatase (PTP) enzymes, and specifically against PTPN2, is assessed in various ways. The one or more PTP enzymes comprise Mycobacterium protein tyrosine phosphatase A (mPTPA), Mycobacterium protein tyrosine phosphatase B (mPTPB), PTPN1 (i.e., PTP1B), PTPN2 (i.e., TC-PTP), PTPN22 (i.e., LYP), SHP-1, SHP-2, FAP-1, Meg2, HePTP, Laforin, VHX, VHR, LMWPTP, Cdc14A, LAR, CD45, PTPRG, a fragment thereof, a variant thereof, and a combination thereof. Selectivity and potency of a small molecule PTPN2 inhibitor is evaluated using a PTP activity inhibition assay. The assay is performed using a buffer comprising 50 mM HEPES buffer pH 7.5, 150 mM NaCl, 0.5 mM EDTA, 1 mM DTT, 0.001% Tween-20.
(§2) The assay is performed using a phosphated substrate, e.g., 10 mM 6,8-Difluoro-4-Methylumbelliferyl Phosphate (DIFMUP) that is stored at −20° C. Alternatively or in addition to, the assay is performed using other phosphated substrate (e.g., fluorescein diphosphate). Each PTP enzyme is diluted in the assay buffer
(§3) The assay can be carried out at room temperature in multiplate format, e.g., using 384 well plates. A small molecule PTPN2 inhibitor dissolved in DMSO at one of 10 concentrations from a serial dilution or DMSO alone for control is added to each well. A mixture of the assay buffer comprising PTP enzyme (e.g., 0.025 ng/ul PTPN2) is added to each well and mixed for approximately 2 minutes. The reaction is initiated by adding DiFMUP diluted in the assay buffer to a final concentration of approximately 45 μM DiFMUP in PTPN2 assay. For each PTP enzyme, DiFMUP is added at the Km (Michaelis constant) of the enzyme that had been independently determined. The phosphatase activity of the PTP enzyme is assessed by monitoring appearance of a fluorescent product (6,8-difluoro-7-hydroxyl-4-coumarin (DiFMU) from DiFMUP) continuously for about 15 to 30 minutes, using the INFINITE M1000Pro plate reader (Tecan) with excitation at 360 nm and emission at 450 nm (cutoff filter at 435 nm) for DiFMU. Each assay is performed at least in duplicate. The rate (e.g., the initial rate) of DiFMU formation is plotted against the concentration of the small molecule PTPN2 inhibitor, and the data is fitted (e.g., using a 4-parameter equation) to determine the inflection point of the fit as the IC50 of the small molecule PTPN2 inhibitor for a specific enzyme. Utilizing this assay, the ability of the compounds in Table 2 to inhibit PTPN2 and PTP1B has been assessed. Table 3 summarizes the IC50 values.

Another assay has as its target T2, PTPN1 (i.e., PTP1B) (Homo sapiens, UniProt P18031).
T2 sequence (P18031 1-435): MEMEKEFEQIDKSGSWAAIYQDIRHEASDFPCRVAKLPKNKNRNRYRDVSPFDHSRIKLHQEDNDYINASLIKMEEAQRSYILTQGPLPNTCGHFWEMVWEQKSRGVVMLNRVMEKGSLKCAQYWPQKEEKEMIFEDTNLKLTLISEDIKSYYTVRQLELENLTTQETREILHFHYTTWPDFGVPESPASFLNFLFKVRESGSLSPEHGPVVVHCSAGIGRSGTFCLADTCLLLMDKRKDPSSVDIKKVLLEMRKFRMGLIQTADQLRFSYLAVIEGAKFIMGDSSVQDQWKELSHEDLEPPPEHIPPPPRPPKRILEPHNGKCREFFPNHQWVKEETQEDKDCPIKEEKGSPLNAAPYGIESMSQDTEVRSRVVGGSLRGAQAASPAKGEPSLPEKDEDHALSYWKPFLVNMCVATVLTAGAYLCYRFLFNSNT
The assay is described as follows: Phosphatase activity assay (DiFMUP substrate), PTP1B. The conditions noted are these: compounds binned ≤1 uM or >1 uM. It counts as biochemical. On the procedure:
as §1, §2, §3

The text below walks through data of patent US20240398828A1, “HETERO-ATOM CONTAINING COMPOUNDS AND USES THEREOF” (Kumquat Biosciences Inc., priority 2021, published 2024).

Molecules are shown by their SMILES. Some results are limits rather than exact numbers.

What is called IC50 is the concentration needed to halve the response being measured.

Consider `O=C1CN(c2c(O)ccc(-c3cn(Cc4cccc(F)c4)cn3)c2F)S(=O)(=O)N1` [Compound 200, 5-(2-fluoro-3-(1-(3-fluorobenzyl)-1H-imidazol-4-yl)-6-hydroxyphenyl)-1,2,5-thiadiazolidin-3-one 1,1-dioxide], for which the IC50 at PTPN2 (i.e., TC-PTP) was at most 1 µM; at PTPN1 (i.e., PTP1B), at most 1 µM.

Take `CS(=O)(=O)Nc1ccc(-c2ccc(O)c(N3CC(=O)NS3(=O)=O)c2F)cc1` [Compound 236, N-(3′-(1,1-dioxido-4-oxo-1,2,5-thiadiazolidin-2-yl)-2′-fluoro-4′-hydroxy-[1,1′-biphenyl]-4-yl)methanesulfonamide]: the IC50 on PTPN2 (i.e., TC-PTP) is at most 1 µM; at PTPN1 (i.e., PTP1B) it was at most 1 µM.

On to `O=C1CN(c2c(O)ccc(-c3cc(CCC4CC4)n[nH]3)c2F)S(=O)(=O)N1` [Compound 452, 5-(3-(3-(2-cyclopropylethyl)-1H-pyrazol-5-yl)-2-fluoro-6-hydroxyphenyl)-1,2,5-thiadiazolidin-3-one 1,1-dioxide], for which the half-inhibitory concentration (IC50) on PTPN2 (i.e., TC-PTP) is at most 1 µM; on PTPN1 (i.e., PTP1B), at most 1 µM.

`O=C1CN(c2c(O)ccc(-c3cnn(C4CC5CCC(C4)N5C(=O)C4CC4)c3)c2F)S(=O)(=O)N1` (stereo not shown) [Compound 411, 5-(3-(1-(8-(cyclopropanecarbonyl)-8-azabicyclo[3.2.1]octan-3-yl)-1H-pyrazol-4-yl)-2-fluoro-6-hydroxyphenyl)-1,2,5-thiadiazolidin-3-one 1,1-dioxide]: the IC50 is at most 1 µM on PTPN2 (i.e., TC-PTP) and at most 1 µM at PTPN1 (i.e., PTP1B).

Consider `CCC1(c2cc(-c3ccc(O)c(N4CC(=O)NS4(=O)=O)c3F)[nH]n2)CC1` [Compound 369, 5-(3-(3-(1-ethylcyclopropyl)-1H-pyrazol-5-yl)-2-fluoro-6-hydroxyphenyl)-1,2,5-thiadiazolidin-3-one 1,1-dioxide], for which the half-maximal inhibitory concentration (IC50) at PTPN2 (i.e., TC-PTP) is at most 1 µM; at PTPN1 (i.e., PTP1B) it was at most 1 µM.

In the case of `CC(C)CCn1cnc(-c2ccc(O)c(C3CC(=O)NS3(=O)=O)c2F)c1` (stereo not shown) [Compound 246, 5-(2-fluoro-6-hydroxy-3-(1-isopentyl-1H-imidazol-4-yl)phenyl)isothiazolidin-3-one 1,1-dioxide], the IC50 at PTPN2 (i.e., TC-PTP) is above 1 µM; on PTPN1 (i.e., PTP1B), above 1 µM.

For `O=C1CN(c2c(O)ccc(C3=CC(CC4CC4)NC3)c2F)S(=O)(=O)N1` (stereo not shown) [Compound 522, 5-(3-(5-(cyclopropylmethyl)-2,5-dihydro-1H-pyrrol-3-yl)-2-fluoro-6-hydroxyphenyl)-1,2,5-thiadiazolidin-3-one 1,1-dioxide], the IC50 at PTPN2 (i.e., TC-PTP) was at most 1 µM; on PTPN1 (i.e., PTP1B), at most 1 µM.

Consider `CC(C)CCn1cnc(-c2ccc(O)c(N3CC(=O)NS3(=O)=O)c2F)c1` [Compound 216, 5-(2-fluoro-6-hydroxy-3-(1-isopentyl-1H-imidazol-4-yl)phenyl)-1,2,5-thiadiazolidin-3-one 1,1-dioxide], for which the half-inhibitory concentration (IC50) on PTPN2 (i.e., TC-PTP) was at most 1 µM; at PTPN1 (i.e., PTP1B), at most 1 µM.

`O=C1CN(c2c(O)ccc(-c3cc(N4CCC5(CCN5)C4)n[nH]3)c2F)S(=O)(=O)N1` (stereo not shown) [Compound 396, 5-(3-(3-(1,6-diazaspiro[3.4]octan-6-yl)-1H-pyrazol-5-yl)-2-fluoro-6-hydroxyphenyl)-1,2,5-thiadiazolidin-3-one 1,1-dioxide]: the concentration for half-maximal inhibition (IC50) is at most 1 µM at PTPN2 (i.e., TC-PTP) and at most 1 µM on PTPN1 (i.e., PTP1B).

For the compound `CC(C)n1cnc(-c2ccc(O)c(N3CC(=O)NS3(=O)=O)c2F)c1` [Compound 165, 5-(2-fluoro-6-hydroxy-3-(1-isopropyl-1H-imidazol-4-yl)phenyl)-1,2,5-thiadiazolidin-3-one 1,1-dioxide], the 50% inhibitory concentration (IC50) on PTPN2 (i.e., TC-PTP) was at most 1 µM; on PTPN1 (i.e., PTP1B) it was at most 1 µM.

Regarding `O=C1CN(c2c(O)ccc(-c3cc(C#Cc4cccnc4)n[nH]3)c2F)S(=O)(=O)N1` [Compound 434, 5-(2-fluoro-6-hydroxy-3-(3-(pyridin-3-ylethynyl)-1H-pyrazol-5-yl)phenyl)-1,2,5-thiadiazolidin-3-one 1,1-dioxide], the concentration for half-maximal inhibition (IC50) on PTPN2 (i.e., TC-PTP) was at most 1 µM; on PTPN1 (i.e., PTP1B) it was at most 1 µM.

In the case of `Cc1ccc(-c2ccc(O)c(N3CC(=O)NS3(=O)=O)c2F)s1` [Compound 128, 5-(2-fluoro-6-hydroxy-3-(5-methylthiophen-2-yl)phenyl)-1,2,5-thiadiazolidin-3-one 1,1-dioxide], the IC50 is at most 1 µM on PTPN2 (i.e., TC-PTP) and at most 1 µM on PTPN1 (i.e., PTP1B).

Consider `O=C1CN(c2c(O)ccc(-c3cn(Cc4ccccc4)nn3)c2F)S(=O)(=O)N1` [Compound 205, 5-(3-(1-benzyl-1H-1,2,3-triazol-4-yl)-2-fluoro-6-hydroxyphenyl)-1,2,5-thiadiazolidin-3-one 1,1-dioxide], for which the IC50 on PTPN2 (i.e., TC-PTP) is at most 1 µM; on PTPN1 (i.e., PTP1B), at most 1 µM.

For the compound `N#CCn1cc(-c2ccc(O)c(N3CC(=O)NS3(=O)=O)c2F)cn1` [Compound 130, 2-(4-(3-(1,1-dioxido-4-oxo-1,2,5-thiadiazolidin-2-yl)-2-fluoro-4-hydroxyphenyl)-1H-pyrazol-1-yl)acetonitrile], the 50% inhibitory concentration (IC50) is at most 1 µM on PTPN2 (i.e., TC-PTP) and at most 1 µM on PTPN1 (i.e., PTP1B).

Regarding `Cc1nc(-c2ccc(O)c(N3CC(=O)NS3(=O)=O)c2F)cn1C` [Compound 199, 5-(3-(1,2-dimethyl-1H-imidazol-4-yl)-2-fluoro-6-hydroxyphenyl)-1,2,5-thiadiazolidin-3-one 1,1-dioxide], the half-inhibitory concentration (IC50) at PTPN2 (i.e., TC-PTP) is at most 1 µM; at PTPN1 (i.e., PTP1B), at most 1 µM.

As to `O=C1CN(c2c(O)ccc(-c3ccc(NC(=O)C4CC4(F)F)cc3)c2F)S(=O)(=O)N1` (stereo not shown) [Compound 403, N-(3′-(1,1-dioxido-4-oxo-1,2,5-thiadiazolidin-2-yl)-2′-fluoro-4′-hydroxy-[1,1′-biphenyl]-4-yl)-2,2-difluorocyclopropane-1-carboxamide], the IC50 is at most 1 µM on PTPN2 (i.e., TC-PTP) and at most 1 µM at PTPN1 (i.e., PTP1B).

For `O=C1C=C(c2c(O)ccc(-c3cn(CC4CCCCC4)cn3)c2F)S(=O)(=O)N1` [Compound 277, 5-(3-(1-(cyclohexylmethyl)-1H-imidazol-4-yl)-2-fluoro-6-hydroxyphenyl)isothiazol-3(2H)-one 1,1-dioxide], the IC50 was at most 1 µM at PTPN2 (i.e., TC-PTP) and at most 1 µM on PTPN1 (i.e., PTP1B).

Take `COCC#Cc1cc(-c2ccc(O)c(N3CC(=O)NS3(=O)=O)c2F)[nH]n1` [Compound 274, 5-(2-fluoro-6-hydroxy-3-(3-(3-methoxyprop-1-yn-1-yl)-1H-pyrazol-5-yl)phenyl)-1,2,5-thiadiazolidin-3-one 1,1-dioxide]: the concentration for half-maximal inhibition (IC50) at PTPN2 (i.e., TC-PTP) is at most 1 µM; on PTPN1 (i.e., PTP1B), at most 1 µM.

For `O=C1CN(c2c(O)ccc(-c3cc(CCCC(F)(F)F)n[nH]3)c2F)S(=O)(=O)N1` [Compound 255, 5-(2-fluoro-6-hydroxy-3-(3-(4,4,4-trifluorobutyl)-1H-pyrazol-5-yl)phenyl)-1,2,5-thiadiazolidin-3-one 1,1-dioxide], the concentration for half-maximal inhibition (IC50) at PTPN2 (i.e., TC-PTP) is at most 1 µM; on PTPN1 (i.e., PTP1B), at most 1 µM.

With `CC(C)(C#N)c1cc(-c2ccc(O)c(N3CC(=O)NS3(=O)=O)c2F)[nH]n1` [Compound 368, 2-(5-(3-(1,1-dioxido-4-oxo-1,2,5-thiadiazolidin-2-yl)-2-fluoro-4-hydroxyphenyl)-1H-pyrazol-3-yl)-2-methylpropanenitrile], the IC50 is at most 1 µM on PTPN2 (i.e., TC-PTP) and at most 1 µM on PTPN1 (i.e., PTP1B).
